Laboratory results: US20260035387A1 (BIOGEN MA INC., priority 2022, published 2026)
Like-named read-outs stand apart in the source and are kept apart here.

Assays:
[1] = system: mutant Huntington (HTT) protein; assay: HTT Mutant HTRF iPSC assay (mHTT protein lowering); type: cell-based; conditions: human iPSC derived from a HTT patient with a poly-Q49 mutation
mHTT protein [2] = conditions: HD mouse model; cited from earlier work
mHTT protein [3] = conditions: HD patient cells; cited from earlier work
mHTT protein [4] = conditions: blood samples from SMA Type I patients dosed orally; cited from earlier work

Compound	IC50 [1]	also measured
COc1c(NC(=O)c2cc3ccc(N4C[C@@H]5CN(C)C[C@@H]54)nc3s2)cc2cn(C)nc2c1F [Compound 235, N-(7-fluoro-6-methoxy-2-methyl-2H-indazol-5-yl)-6-((1S,5R)-3-methyl-3,6-diazabicyclo[3.2.0]heptan-6-yl)thieno[2,3-b]pyridine-2-carboxamide]	< 100 nM	–
COc1cc2nn(C)cc2cc1NC(=O)c1cc2ccc(N3CC4(CCCN4C)C3)nc2s1 [Compound 236, N-(6-methoxy-2-methyl-2H-indazol-5-yl)-6-(5-methyl-2,5-diazaspiro[3.4]octan-2-yl)thieno[2,3-b]pyridine-2-carboxamide]	< 100 nM	–
Cc1cn2cc(NC(=O)c3cc4ccc(N5CC6CCNC6C5)nc4s3)cc(F)c2n1 (stereo not shown) [Compound 237, N-(8-fluoro-2-methylimidazo[1,2-a]pyridin-6-yl)-6-(hexahydropyrrolo[3,4-b]pyrrol-5(1H)-yl)thieno[2,3-b]pyridine-2-carboxamide]	< 100 nM	–
CNC1CCN(c2ccc3cc(C(=O)Nc4cc(F)c5nc(C)cn5c4)sc3n2)C1 (stereo not shown) [Compound 238, N-(8-fluoro-2-methylimidazo[1,2-a]pyridin-6-yl)-6-(3-(methylamino)pyrrolidin-1-yl)thieno[2,3-b]pyridine-2-carboxamide]	< 100 nM	–
CCN1CCN(c2ccc3cc(C(=O)Nc4cn5cc(C)nc5c(C)n4)sc3n2)CC1 [Compound 240, N-(2,8-dimethylimidazo[1,2-a]pyrazin-6-yl)-6-(4-ethylpiperazin-1-yl)thieno[2,3-b]pyridine-2-carboxamide]	< 100 nM	–
Cc1cn2cc(NC(=O)c3cc4ccc(N5CC6CCC(C5)N6C)nc4s3)nc(C)c2n1 [Compound 243, N-(2,8-dimethylimidazo[1,2-a]pyrazin-6-yl)-6-(8-methyl-3,8-diazabicyclo[3.2.1]octan-3-yl)thieno[2,3-b]pyridine-2-carboxamide]	< 100 nM	–
Cc1cn2cc(NC(=O)c3cc4ccc(N5C[C@H]6CCN[C@H]6C5)nc4s3)cc(F)c2n1 [Compound 245, N-(8-fluoro-2-methylimidazo[1,2-a]pyridin-6-yl)-6-((3aR,6aR)-hexahydropyrrolo[3,4-b]pyrrol-5(1H)-yl)thieno[2,3-b]pyridine-2-carboxamide]	< 100 nM	–
CN1CCC(c2ccc3nc(C(=O)Nc4cc(F)c5nn(C)cc5c4)sc3n2)CC1 [Compound 246, N-(7-fluoro-2-methyl-2H-indazol-5-yl)-5-(1-methylpiperidin-4-yl)thiazolo[5,4-b]pyridine-2-carboxamide]	100 to 1000 nM	–
CCN1CCN(c2cnc3cc(C(=O)Nc4cc5cn(C)nc5cc4OC)sc3n2)CC1 [Compound 247, 3-(4-ethylpiperazin-1-yl)-N-(6-methoxy-2-methyl-2H-indazol-5-yl)thieno[2,3-b]pyrazine-6-carboxamide]	< 100 nM	–
COc1cc2nn(C)cc2cc1NC(=O)c1cc2ncc(N3CCC4(CN(C)C4)C3)nc2s1 [Compound 248, N-(6-methoxy-2-methyl-2H-indazol-5-yl)-3-(2-methyl-2,6-diazaspiro[3.4]octan-6-yl)thieno[2,3-b]pyrazine-6-carboxamide]	100 to 1000 nM	–
COc1c(NC(=O)c2cc3ccc(C4CCN(C)CC4)nc3s2)cc2cn(C)nc2c1F [Compound 249, N-(7-fluoro-6-methoxy-2-methyl-2H-indazol-5-yl)-6-(1-methylpiperidin-4-yl)thieno[2,3-b]pyridine-2-carboxamide]	< 100 nM	–
Cc1cn2cc(NC(=O)c3cc4ccc(N5CC[C@@H](N(C)C)C5)nc4s3)nc(C(F)F)c2n1 [Compound 250, (R)-N-(8-(difluoromethyl)-2-methylimidazo[1,2-a]pyrazin-6-yl)-6-(3-(dimethylamino)pyrrolidin-1-yl)thieno[2,3-b]pyridine-2-carboxamide]	< 100 nM	–
CCN1CCN(c2ccc3cc(C(=O)Nc4cn5cc(C)nc5c(C(F)F)n4)sc3n2)CC1 [Compound 253, N-(8-(difluoromethyl)-2-methylimidazo[1,2-a]pyrazin-6-yl)-6-(4-ethylpiperazin-1-yl)thieno[2,3-b]pyridine-2-carboxamide]	< 100 nM	–
CCOc1cn2nc(C)cc2cc1NC(=O)c1cc2ccc(N3CC4(CCN(C)C4)C3)nc2s1 [Compound 256, N-(6-ethoxy-2-methylpyrazolo[1,5-a]pyridin-5-yl)-6-(6-methyl-2,6-diazaspiro[3.4]octan-2-yl)thieno[2,3-b]pyridine-2-carboxamide]	< 100 nM	–
Cc1cn2cc(NC(=O)c3cc4ncc(N5CCC6(CN(C)C6)C5)nc4s3)cc(F)c2n1 [Compound 257, N-(8-fluoro-2-methylimidazo[1,2-a]pyridin-6-yl)-3-(2-methyl-2,6-diazaspiro[3.4]octan-6-yl)thieno[2,3-b]pyrazine-6-carboxamide]	100 to 1000 nM	–
Cc1cn2cc(NC(=O)c3cc4ncc(N5CC(C)(N)C5)nc4s3)cc(F)c2n1 [Compound 258, 3-(3-amino-3-methylazetidin-1-yl)-N-(8-fluoro-2-methylimidazo[1,2-a]pyridin-6-yl)thieno[2,3-b]pyrazine-6-carboxamide]	< 100 nM	–
CCN1CCN(c2ccc3oc(C(=O)Nc4cc5cc(C)nn5cc4OC)cc3n2)CC1 [Compound 259, 5-(4-ethylpiperazin-1-yl)-N-(6-methoxy-2-methylpyrazolo[1,5-a]pyridin-5-yl)furo[3,2-b]pyridine-2-carboxamide]	100 to 1000 nM	–
COc1nc(NC(=O)c2cc3nc(C4CCN(C)CC4)ccc3o2)cn2cc(C)nc12 [Compound 262, N-(8-methoxy-2-methylimidazo[1,2-a]pyrazin-6-yl)-5-(1-methylpiperidin-4-yl)furo[3,2-b]pyridine-2-carboxamide]	100 to 1000 nM	–
COc1cc2nn(C)cc2cc1NC(=O)c1cc2nc(N3CCN(C)CC3)ccc2o1 [Compound 263, N-(6-methoxy-2-methyl-2H-indazol-5-yl)-5-(4-methylpiperazin-1-yl)furo[3,2-b]pyridine-2-carboxamide]	< 100 nM	–
COc1cc(NC(=O)c2nc3ccc(N4CC5(CCN(C)C5)C4)nc3s2)cn2cc(C)nc12 [Compound 267, N-(8-methoxy-2-methylimidazo[1,2-a]pyridin-6-yl)-5-(6-methyl-2,6-diazaspiro[3.4]octan-2-yl)thiazolo[5,4-b]pyridine-2-carboxamide]	< 100 nM	–
Cc1cn2cc(NC(=O)c3cc4ncc(N5C[C@@H]6CN(C)C[C@@H]65)nc4s3)cc(F)c2n1 [Compound 268, N-(8-fluoro-2-methyl-imidazo[1,2-a]pyridin-6-yl)-3-[(1S,5R)-3-methyl-3,6-diazabicyclo[3.2.0]heptan-6-yl]thieno[2,3-b]pyrazine-6-carboxamide]	100 to 1000 nM	–
COc1cc2nn(C)cc2cc1NC(=O)c1cc2nc(C3CCN(C)CC3)ccc2o1 [Compound 269, N-(6-methoxy-2-methyl-2H-indazol-5-yl)-5-(1-methylpiperidin-4-yl)furo[3,2-b]pyridine-2-carboxamide]	100 to 1000 nM	–
CC1(C)CC(Oc2ccc(-c3ccc(-c4cn[nH]c4)cc3O)nn2)CC(C)(C)N1 [branaplam]	–	mHTT protein levels (mHTT protein [2]): lowers mHTT protein levels; mHTT protein levels (mHTT protein [3]): lowers mHTT protein levels; mHTT protein levels (mHTT protein [4]): lowers mHTT protein levels
